Reference: patent US20200207830A1, “TREM2 MUTANTS RESISTANT TO SHEDDASE CLEAVAGE” (NOVARTIS AG, priority 2017, published 2020)

Columns and labels:
ADAM10 [1] = molecular target: T1, ADAM10 (Homo sapiens, UniProt O14672); test: In vitro inhibition of recombinant ADAM10; type: biochemical; conditions: Hepes buffer pH 7.5
T1 sequence (O14672 214-748): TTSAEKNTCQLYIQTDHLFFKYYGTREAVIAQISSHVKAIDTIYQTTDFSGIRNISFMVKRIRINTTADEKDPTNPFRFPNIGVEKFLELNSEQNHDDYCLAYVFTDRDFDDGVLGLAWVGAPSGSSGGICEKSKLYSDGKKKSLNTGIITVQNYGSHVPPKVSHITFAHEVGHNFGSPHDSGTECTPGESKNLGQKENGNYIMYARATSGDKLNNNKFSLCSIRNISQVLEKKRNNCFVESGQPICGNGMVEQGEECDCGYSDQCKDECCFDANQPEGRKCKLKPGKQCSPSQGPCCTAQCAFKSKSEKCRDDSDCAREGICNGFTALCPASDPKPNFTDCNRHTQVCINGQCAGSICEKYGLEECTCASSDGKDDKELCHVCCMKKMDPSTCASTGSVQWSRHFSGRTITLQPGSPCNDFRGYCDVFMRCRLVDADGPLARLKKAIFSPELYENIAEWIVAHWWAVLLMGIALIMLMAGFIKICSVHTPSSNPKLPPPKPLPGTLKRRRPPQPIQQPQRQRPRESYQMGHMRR
Description: FIG. 2E is a line graph showing inhibition of recombinant ADAM10 and ADAM17 by DPC333 and GI254023 in vitro in Hepes buffer at pH 7.5.
Enzyme selectivity of the ADAM inhibitors applied was determined in an in vitro cleavage assay and both inhibitors were used over a broad concentration range to investigate effects on TREM2 cell surface expression in CHO-hDAP12-hTREM2 cells and human M2A macrophages.

human M2A macrophages = test: Live cell imaging of TREM2 cell surface expression in human M2A macrophages; type: cell-based
Text: (§1) CHO cells were transfected to co-express hDAP12 and hTREM2 using Lipofectamine LTX reagent (Thermofischer) according to the manufacturer's recommendations. One positive clone was selected and designated CHO-hDAP12-hTREM2. Human M2A macrophages were obtained from buffy coat using a negative isolation kit for monocytes (Stem cell technologies) and differentiated for 5 days in RPMI1640 medium with Glutamax (Gibco) supplemented with 10% FBS (Gibco), PenStrep (Gibco), 1% Sodium Pyruvate (Gibco), 0.025 M HEPES Buffer (Gibco), 0.05 mM β-mercaptoethanol (Gibco), M-CSF (40 ng/ml) and IL-4 (50 ng/ml). Cell surface TREM2 was detected by FACS as described above.
(§2) Human M2A macrophages or CHO-hDAP12-hTREM2 were seeded on 384 well plates (Greiner) and treated with ADAM inhibitors DPC333 or GI254023 at concentrations indicated in the figures. 16 h later cells were treated for 30 minutes with PMA (50 ng/ml) or 0.1% DMSO for 30 minutes. Plates were put on ice and stained with goat anti human TREM2 antibody AF1828 (R&D Systems) or isotype control and Hoechst stain followed by incubation with the secondary Alexa Fluor 488 conjugated anti goat antibody (Molecular Probes). Images were acquired using an InCe112000 analyzer (GE Healthcare). For image quantification the free open source software CellProfiler was applied.
To determine the contribution of ADAM10 or ADAM17 to shedding of TREM2 ectodomain, selective inhibitors were identified: DPC333 (Qian et al., Drug Metabolism and Disposition: the Biological Fate of Chemicals 35, 1916-1925, 2007) and GI254023 (Hundhausen et al., Blood. 2003; 102:1186-1195). DPC333 and GI254023 were characterized for inhibitory selectivity towards ADAM10 and ADAM17. […] Using live cell imaging, cell surface expression of hTREM2 was assessed in CHO-hDAP12-hTREM2 cells after overnight treatment of the cells with the two ADAM inhibitors under conditional shedding conditions (FIG. 2A) or after treatment of the cells with PMA (FIG. 2B). […]

THP1 cells = test: Cell surface TREM2 and sTREM2 in THP1 CRISPR cell clones; type: cell-based, human
Description: THP1 cells stably coexpressing Cas9 and a blasticidin resistance gene delivered by lentivirus were cultured in RPMI medium containing 10% FBS, 1% L-glutamine, 1% pen/strep, and 10 μg/ml of blasticidin (Thermo Fisher Scientific). The cells were cultured at 37° C. in 5% CO2 atmosphere.
THP1-Cas9 cells were infected with lentiviruses expressing the puromycin resistance gene and sgRNAs (for vector design, see Hoffman, Proceedings of the National Academy of Sciences of the United States of America 111, 3128-3133, 2014) targeting either ADAM10 ([…], SEQ ID NO: 75) or ADAM17 ([…], SEQ ID NO: 76). Lentiviral packaging was carried out in HEK293T cells as described previously. Briefly, 30 μL of lentiviral sgRNA supernatant was added to 1×10^6 THP1-Cas9 cells in 2 ml medium containing 5 μg/ml polybrene (Sigma) and spun at 300 g for 90 minutes in a 6-well plate. After 24 hours the cells were spun down and resuspended in fresh culture medium containing 1.5 μg/mL puromycin. After 4 weeks of weekly media changes, genomic DNA was isolated using a Quick-gDNA miniprep kit (Zymo Research) to assess the insertions and deletions (indels) present in the pool by next-generation sequencing (NGS). To isolate clones containing only frameshift indels, cells were plated at limiting dilution into 96-well plates. Upon expansion of the clones, they were assayed by NGS and clones containing only frameshift alleles were selected for downstream assays.
To confirm the results in Example 2, a genetic approach was used to further investigate the contribution of ADAM10/17 to TREM2 shedding. Human monocytic THP1 cells were chosen as model system which endogenously expresses TREM2. Employing the CRISPR/CAS9 technology, clones were generated that lack expression of ADAM10 (AD10 H4) or ADAM17 (AD17 G12) as well as a control cell line (Ctrl gRNA). Absence of gene products was verified by FACS analysis or Western blot (FIGS. 3C-3D).
Cell surface expressed TREM2 and sTREM2 were assessed in the three cell lines in the same experiment using three different conditions: no treatment reflecting constitutive shedding, PMA treatment that maximally activates shedding, and finally PMA and DPC333 treatment. […] Maximally activating sheddases with PMA leads to a strong reduction of cell surface TREM2 both in the control cell line and in the ADAM10 deficient clone. This is reflected in a strong increase in sTREM2. In the ADAM17 deficient cell line, PMA treatment also leads to a reduction of cell surface TREM2, but to a smaller extent than in the control CRISPR clone. Also, the increase in sTREM2 is smaller compared to PMA treated control CRISPR clone and ADAM10 deficient clone. However, the cleavage of TREM2 in the AD17 G12 clone in the presence of PMA must be caused by a sheddase other than ADAM17. […]

ADAM17 [2] = molecular target: T2, ADAM17 (Homo sapiens, UniProt P78536); test: In vitro inhibition of recombinant ADAM17; type: biochemical; conditions: Hepes buffer pH 7.5
CHO-hDAP12-hTREM2 cells = test: Live cell imaging of TREM2 cell surface expression in CHO-hDAP12-hTREM2 cells; type: cell-based; conditions: overnight treatment
Text: as §1, §2
To determine the contribution of ADAM10 or ADAM17 to shedding of TREM2 ectodomain, selective inhibitors were identified: DPC333 (Qian et al., Drug Metabolism and Disposition: the Biological Fate of Chemicals 35, 1916-1925, 2007) and GI254023 (Hundhausen et al., Blood. 2003; 102:1186-1195). DPC333 and GI254023 were characterized for inhibitory selectivity towards ADAM10 and ADAM17. […] Using live cell imaging, cell surface expression of hTREM2 was assessed in CHO-hDAP12-hTREM2 cells after overnight treatment of the cells with the two ADAM inhibitors under conditional shedding conditions (FIG. 2A) or after treatment of the cells with PMA (FIG. 2B). […] This effect might be attributed to true ADAM10 inhibition or it might be caused by unspecific inhibition of ADAM17 by GI254023 when used at high concentrations. […] To get closer to a physiological cellular system, a similar experiment was conducted in human M2A macrophages differentiated from CD^14+ human monocytes (FIGS. 2C-2D).

ADAM10 [3] = molecular target: T1, ADAM10; test: In vitro cleavage of TREM2 stalk region peptides by ADAM10; type: biochemical; conditions: data not shown
Text: (§3) In order to identify the cleavage site of ADAM10/ADAM17 within the stalk region of TREM2, in vitro cleavage patterns of stalk region-derived peptides were investigated and confirmed the cleavage site by determination of the C-terminus of shed soluble TREM2 from cell culture supernatants. A series of peptides covering the stalk region were designed for in vitro investigation of ADAM10/ADAM17 cleavage (FIG. 5A). All peptides were obtained with an N-terminal 7-methoxycoumarin (Mca) fluorescent tag. Peptides 1-3, 1a and 2a were incubated with ADAM17 in neutral buffer for up to 48 hours, and reaction was followed by HPLC analysis of aliquots withdrawn at different time points.
(§4) HPLC-MS analysis of the reaction mixture of peptide3/ADAM17 identified one major product, SISRSLLEGEIPFP-NH2(SEQ ID NO: 51), together with 2 minor cleavage products (FIGS. 5B-5C). […] At these time points there was essentially no substrate left. Therefore, it can be concluded that the minor cleavage products originate from secondary ADAM17 cleavage of the main product.
Recent literature gave insight into ADAM10 and ADAM17 preferences for the cleavage of peptides and proteins (Caescu et al., Biochem J 424, 79-88, 2009; Tucher et al., J Proteome Res 13, 2205-2214, 2014). […] After searching for the least preferred amino acids in substrates of ADAM10 and 17, isoleucine was identified as never occurring in P1 of ADAM substrates, and a very low preference for aspartate or proline in P1′ and in P2′. […] In these peptides the H-SI cleavage site was replaced with IPP, IPD, and IDP, respectively.

ADAM17 [4] = molecular target: T2, ADAM17; test: In vitro cleavage of TREM2 stalk region peptides by ADAM17 (HPLC); type: biochemical; conditions: neutral buffer, up to 48 hours, HPLC of parent peptide
Text: FIGS. 5A-5E show ADAM17 cleaves TREM2 stalk region peptides in vitro at H157-S158. […] All peptides were obtained with an N-terminal 7-methoxycoumarin (Mca) fluorescent tag […]. Underlined amino acids indicates main sheddase cleavage site. AA112-171: SEQ ID NO: 24; Peptide 1: SEQ ID NO: 25; Peptide 2: SEQ ID NO: 26; Peptide 3: SEQ ID NO: 27; Peptide la: SEQ ID NO: 28; Peptide 2a: SEQ ID NO: 29; Peptide 4: SEQ ID NO: 30; Peptide 5: SEQ ID NO: 31; Peptide 6: SEQ ID NO: 32. […] FIG. 5C discloses SEQ ID NOS 83, 51 and 84, respectively, in order of appearance.
as §3, §4

[5] = conditional shedding (steady state) conditions, FIG. 2A
[6] = then PMA-treated cells, FIG. 2B

T2 sequence (P78536 215-824): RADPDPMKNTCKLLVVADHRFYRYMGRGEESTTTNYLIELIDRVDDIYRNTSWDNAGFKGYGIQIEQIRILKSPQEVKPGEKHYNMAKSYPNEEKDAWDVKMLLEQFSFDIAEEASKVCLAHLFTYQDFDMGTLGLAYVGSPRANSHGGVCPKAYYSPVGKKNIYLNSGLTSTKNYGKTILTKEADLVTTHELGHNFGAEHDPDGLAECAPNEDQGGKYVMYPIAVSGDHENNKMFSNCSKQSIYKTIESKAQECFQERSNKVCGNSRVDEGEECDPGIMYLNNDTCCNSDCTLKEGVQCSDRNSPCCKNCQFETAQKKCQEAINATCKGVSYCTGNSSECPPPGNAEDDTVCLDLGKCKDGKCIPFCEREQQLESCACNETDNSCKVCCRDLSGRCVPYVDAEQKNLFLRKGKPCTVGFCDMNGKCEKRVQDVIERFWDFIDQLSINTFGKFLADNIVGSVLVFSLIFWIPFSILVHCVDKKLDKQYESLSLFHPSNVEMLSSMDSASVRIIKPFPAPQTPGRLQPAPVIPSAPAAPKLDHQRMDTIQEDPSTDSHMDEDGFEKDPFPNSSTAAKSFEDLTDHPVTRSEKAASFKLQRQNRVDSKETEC

Row | Molecule | IC50 (ADAM10 [1]) [nM] | IC50 (ADAM17 [2]) [nM] | Cleavage by ADAM10 (ADAM10 [3]) | Cleavage by ADAM17 (ADAM17 [4]) | TREM2 cell surface expression (human M2A macrophages; additional PMA treatment, FIG. 2D) | TREM2 cell surface expression (human M2A macrophages; steady-state shedding, FIG. 2C) | TREM2 cell surface levels (THP1 cells; co-treatment with PMA and DPC333, AD10 H4 cells (ADAM10 knockout)) | TREM2 cell surface levels (THP1 cells; co-treatment with PMA and DPC333, AD17 G12 clone (ADAM17 knockout)) | TREM2 cell surface levels (THP1 cells; co-treatment with PMA and DPC333, Ctrl gRNA cells) | sTREM2 (THP1 cells; co-treatment with PMA and DPC333 compared to PMA treatment only, AD17 G12 clone) | TREM2 cell surface levels (CHO-hDAP12-hTREM2 cells; [5]) | TREM2 cell surface levels (CHO-hDAP12-hTREM2 cells; [6])
1 | CNC(=O)[C@@H](NC(=O)[C@H](CCCc1ccccc1)[C@H](C)N(O)C=O)C(C)(C)C [GI254023, (2R,3 S)-3-(formyl-hydroxyamino)-2-(3-phenyl-1-propyl) butanoic acid [(1S)-2,2-dimethyl-1-methylcarbamoyl-1-propyl] amide] | 1.5 | 196 | – | – | – | small effect | – | – | – | – | limited effect | complete lack of effect
2 | Peptide 5: TREM2 stalk peptide, H-SI cleavage site replaced with IPD; SEQ ID NO: 31 (DAHVEIPDSRSLLEGEIPFP) | – | – | slowly cleaved | resistant to in vitro cleavage | – | – | – | – | – | – | – | –
3 | Peptide 6: TREM2 stalk peptide, H-SI cleavage site replaced with IDP; SEQ ID NO: 32 (DAHVEIDPSRSLLEGEIPFP) | – | – | slowly cleaved | resistant to in vitro cleavage | – | – | – | – | – | – | – | –

The next lines start with results.

Row | IC50 (ADAM10 [1]) [nM] | IC50 (ADAM17 [2]) [nM] | Cleavage by ADAM10 (ADAM10 [3]) | Cleavage by ADAM17 (ADAM17 [4]) | Molecule | TREM2 cell surface expression (human M2A macrophages; additional PMA treatment, FIG. 2D) | TREM2 cell surface expression (human M2A macrophages; steady-state shedding, FIG. 2C) | TREM2 cell surface levels (THP1 cells; co-treatment with PMA and DPC333, AD10 H4 cells (ADAM10 knockout)) | TREM2 cell surface levels (THP1 cells; co-treatment with PMA and DPC333, AD17 G12 clone (ADAM17 knockout)) | TREM2 cell surface levels (THP1 cells; co-treatment with PMA and DPC333, Ctrl gRNA cells) | sTREM2 (THP1 cells; co-treatment with PMA and DPC333 compared to PMA treatment only, AD17 G12 clone) | TREM2 cell surface levels (CHO-hDAP12-hTREM2 cells; [5]) | TREM2 cell surface levels (CHO-hDAP12-hTREM2 cells; [6])
4 | 5.3 | < 0.6 | – | – | Cc1cc(COc2ccc([C@]3(N)CCN([C@H](CC(C)C)C(=O)NO)C3=O)cc2)c2ccccc2n1 [DPC333] | increases TREM2 cell surface expression dose-dependently | increases TREM2 cell surface expression dose-dependently | restored | smaller effects | restored | strongly reduced | dose-dependently increases | dose-dependently increases
5 | – | – | cleavage resistant | resistant to in vitro cleavage | Peptide 4: TREM2 stalk peptide, H-SI cleavage site replaced with IPP; SEQ ID NO: 30 (DAHVEIPPSRSLLEGEIPFP) | – | – | – | – | – | – | – | –
